The values below come from publication PMC4381587, “A novel PI3K inhibitor PIK-C98 displays potent preclinical activity against multiple myeloma” (Oncotarget, 2014).

As a reminder, the IC50 is the concentration needed to halve the response being measured. As a reminder, the MRT is the average time that molecules of a dose stay in the body.

One data set deals with AKT. Nature of the data set: Kinase activity in cell-free assay, AKT. It counts as biochemical. The settings on record: enzymatic system; read-out: IC50 on AKT activation. As to the method:
To confirm this hypothesis, the inhibitory potency of C98 on PI3K enzymes was measured in a cell-free system with individual recombinant human PI3K isoforms. […] To further evaluate its specificity on PI3K, the effects of C98 on other associated kinases AKT, PDK1, and mTOR were also measured in the enzymatic systems. […] Therefore, C98 preferred to inhibit PI3K activity.
Kinase activity in the presence of C98 was performed by using the HotSpot technology (Reaction Biology Corp., Malvern, PA, USA) as described previously.

A further data set has as its system OPM2 and RPMI-8226 cells. Nature of the data set: MTT assay with IGF-1 rescue. It counts as cell-based. To be noted: OPM2 and RPMI-8226, IGF-1 alone or together with C98, 48 hr. On the procedure:
To answer whether C98 could induce apoptosis in other MM cells, 5 more MM cells were subject to the study. […] Cell apoptosis induced by C98 was further confirmed by the increased fraction of positive cells stained with Annexin V (Figure 5). To show whether activated PI3K signals can rescue C98 effects on MM cells, both OPM2 and RPMI-8226 cells were treated with IGF-1 alone or together with C98 for 48 hr followed by MTT assay.
Cell viability was assessed with the MTT assay as reported previously. To show apoptosis, MM cells were incubated for 24 hr with increasing concentrations of C98 before being stained with Annexin V-FITC and propidium iodide (BioVision Milpitas, CA). Apoptotic cells were measured on a flow cytometer (FACSCalibur®, Becton Dickinson) as reported as previously. […]
www.impactjournals.com/oncotarget/ Oncotarget, Supplementary Materials 2014
Supplementary Figure S3: IGF-1 rescues C98-decreased MM cell proliferation. OPM2 and RPMI-8226 cells were treated with IGF-1 alone or increased C98 for 48 hr, followed by MTT assay. […]
On the technique in general: Tetrazolium dyes change colour on reduction, which living cells bring about.

The next data set relates to p38. Nature of the data set: Immunoblotting of p38 phosphorylation in OPM2 and JJN3 cells. Type of data set: cell-based, human. The settings on record: OPM2 and JJN3, 24 hr. On the procedure: (§1) (B) LP1 and JJN3 cells were starved overnight, then treated with C98 or S14161 for 2 hr, followed by IGF-1 (100 ng/mL) for 15 min. Cells were then prepared for the analysis of the expression of p-AKT, t-AKT, p-IGF-1R, and IGF-1R by immunoblotting. (C) OPM2 and JJN3 cells were treated with increasing concentrations of C98 for 24 hr before being applied to immunoblotting against p-ERK, t-ERK, p-P38, t-P38, p-Src, t-Src, p-STAT3, or t-STAT3. GAPDH and β-actin were used as loading controls.
(§2) To further clarify the effects of C98 on other signaling pathways associated with PI3K signaling, we evaluated ERK and p38, both of which mediate extracellular signaling similar to PI3K. […] We also checked the phosphorylation status of STAT3, a signal transducer and activator of transcription. […] Therefore, C98 had no effects on these kinases/proteins associated with PI3K signaling.
(§3) The immunoblotting assays were performed as described previously. IRDye 680 goat anti-mouse and IRDye 800CW goat anti-rabbit antibodies were from Odyssey (San Ramon, CA, USA).

The next data set concerns c-Src. Nature of the data set: Immunoblotting of c-Src phosphorylation in OPM2 and JJN3 cells. Type of data set: cell-based, human. To be noted: OPM2 and JJN3, 24 hr. As to the method: as §1, §2, §3
In general terms: Immunoblotting shows a protein as a band on a membrane.

A short description of data set [1]: Pharmacokinetic study in nude mice, oral. The settings on record: mouse, one oral bolus 40 mg/kg, plasma. Type of data set: in vivo. As to the method: To further characterize C98 in the treatment of MM, we determined its pharmacokinetic parameters. One bolus of 40 mg/kg of C98 was orally administrated, blood samples were then collected at the time points of 0.167, 0.5, 1, 2, 4, 6, 8, and 24 hr.
Prior to dose administration, nude mice (Shanghai Slac Laboratory Animal Co. Ltd., Shanghai, China) were fasted overnight with free access to water in the regular light-dark cycle. A group of 9 mice received an oral dose of C98 at 40 mg/kg. Blood samples were collected from three mice (n = 3) at each time points as follows: 0.167, 0.5, 1, 2, 4, 6, 8, and 24 hr. Blood samples (100 μL) were immediately mixed with 10 μL of EDTA and plasma was obtained by centrifugation at 1.3 × 10^4 rpm for 10 min. Samples were stored at –80°C for LC-MS/MS analysis. Plasma concentration versus time was analyzed using WinNolin software (version 6.2.1, Pharsight, USA) and the pharmacokinetic parameters maximum drug concentration (Cmax), time to reach maximum drug concentration (Tmax), half life (t1/2), area under the plasma level-time curve (AUC) were calculated.
Concentrations of C98 in plasma and in tumor tissues were analyzed by a LC-MS/MS method as described previously. Chromatographic separation was achieved using an Agela Venusil XBP C18 column (50 × 2.1 mm; […] particle size, Bonna-Agela Technologies, Tianjin, China). The column temperature was maintained at 40°C. Gradient elution at a flow rate of 0.3 mL/min was performed using the mobile phases: A, acetonitrile: water: formic acid (5: 95: 0.1, v: v: v) and B, acetonitrile: water: formic acid (95: 5: 0.1, v: v: v).
The mass spectrometer was operated in the negative ionization mode. The ion transitions for the multiple reaction monitored were: C98, 346.6 (M-H)→312.7; betamethasone (internal standard, IS), 391.1 (M-H)→ 361.4, with a dwell time of 100 ms per transition. After setting the collision energy and mass transition for C98 and the Internal standard, all other parameters were optimized for the best sensitivity. Data was processed by the Analyst 1.5.2 data collection and integration software (AB Sciex, Framingham, MA).
Supplementary Figure S5: The time-concentration profiles of C98 in plasma after oral administration. Nude mice were orally administrated C98 at a dose of 40 mg/kg. Blood species were then collected at a serial of time points (0, 0.167, 0.5, 1, 1.5, 2, 4, 6, 8, 24 hr) and subject to LC-MS/MS analysis after treatment as described in the Methods section. Resultant plasma concentration versus time data was analyzed using WinNolin software.
(also on this page, place not known: www.impactjournals.com/oncotarget/ Oncotarget, Materials 2014 Supplementary) […]

For the molecule `N#C/C(=C\C=C\c1ccc(-c2cc(Cl)ccc2Cl)o1)C(N)=S` [C98], in the data set on AKT, the IC50 came to 61.4 µM. Also, the “MM cell proliferation (MTT), rescue by IGF-1” value in the data set on OPM2 and RPMI-8226 cells is listed as “IGF-1 could partly abolish C98-decreased MM cell proliferation”. Besides, in the data set with p38, the “phosphorylation level of p38” value is “failed to decrease”. The “phosphorylation of c-Src” value in the data set on c-Src is “failed to inhibit”. The MRT in data set [1] (read-out: mean residence time (MRT)) worked out at 4.48 h. Further, the Cmax in data set [1] (read-out: median peak concentration (Cmax)) was found to be 367 ng/mL. Moreover, the Tmax in data set [1] (read-out: time to maximal concentration (Tmax)) amounted to 0.5 h. The half-life in data set [1] (nude, po, 40 mg/kg, read-out: half-life (t1/2) (converted)) was 2.03 h.
